Earlier results in patent publication US20110070305A1, “SUSTAINED RELEASE PHARMACEUTICAL COMPOSITION CONTAINING MEBICAR” (ALPHARX INC., priority 2009, published 2011).

Experiments:
[1] = orally administered

In the case of CN1C(=O)N(C)C2C1N(C)C(=O)N2C (stereo not drawn) [Mebicar], the “solubility in alcohol and most polar organic solvents” value (alcohol and most polar organic solvents) is listed as “soluble”, the solubility in water (water, ambient temperature) is listed as “about 50%” and the half-life [1] is listed as “approximately 3 hours”.
